Experimental data reported in the supplement of paper PMC4862054.
“And” between values parts separate entries of the source, which are not always exact repeats. Equal entries are not always repeated.

How the values were obtained:
Settings in all cases: incubation time: 72 h
CAL-148 [1] = assay: normalised viability (% of control), CellTiter-Blue; higher = more viable cells (about 100 = DMSO control)
Method: (§1)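 DSRT, CellTiter-Blue viability, 72 h incubation. Signal is normalised to DMSO and benzethonium chloride controls. Value is the normalised response at dose 8.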

CAL-51 [2] = assay: as above
Method: as §1

CAL-85-1 [3] = assay: as above
Method: as §1

DU-4475 [4] = assay: as above
Method: as §1

HDQ-P1 [5] = assay: as above
Method: as §1

MDA-MB-453 [6] = assay: as above
Method: as §1

DU-4475 [7] = assay: as above; remark: listed apart in the source
Method: (§2)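 DSRT, CellTiter-Blue viability, 72 h incubation. Signal is normalised to DMSO and benzethonium chloride controls. Value is the normalised response at dose 9.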

HDQ-P1 [8] = assay: as above; remark: listed apart in the source
Method: as §2

MDA-MB-453 [9] = assay: as above; remark: listed apart in the source
Method: as §2

BT-474 = assay: drug sensitivity score (DSS), CellTiter-Blue viability (DSS (AUC-based score)); higher = stronger viability inhibition; extreme values may be limits of the assay
Method: (§3)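 DSRT with the CellTiter-Blue (resazurin reduction) viability readout, fluorescence 560/590 nm, 72 h incubation. Plates were normalised to DMSO and benzethonium chloride controls. DSS is computed from the area under the fitted dose-response curve (5 or 9 concentrations).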

BT-549 = assay: as above
Method: as §3

CAL-120 = assay: as above
Method: as §3

CAL-148 [10] = assay: as above
Method: as §3

CAL-51 [11] = assay: as above
Method: as §3

CAL-85-1 [12] = assay: as above
Method: as §3

DU-4475 [13] = assay: as above
Method: as §3

HCC1143 = assay: as above
Method: as §3

HCC1599 = assay: as above
Method: as §3

HCC1937 = assay: as above
Method: as §3

HDQ-P1 [14] = assay: as above
Method: as §3

Hs578T = assay: as above
Method: as §3

MDA-MB-231 = assay: as above
Method: as §3

MDA-MB-436 = assay: as above
Method: as §3

MDA-MB-453 [15] = assay: as above
Method: as §3

MDA-MB-468 = assay: as above
Method: as §3

MFM-223 = assay: as above
Method: as §3

SK-BR-3 = assay: as above
Method: as §3

CC[C@@H]1C(=O)N(C)c2cnc(Nc3ccc(C(=O)NC4CCN(C)CC4)cc3OC)nc2N1C1CCCC1 [BI 2536]
normalised viability (CAL-148 [1]; 300 nM): 41.5%
normalised viability (CAL-51 [2]; 300 nM): 10.6%
normalised viability (CAL-85-1 [3]; 300 nM): 61.8%
normalised viability (DU-4475 [4]; 300 nM): 32.9%
normalised viability (HDQ-P1 [5]; 300 nM): 65.2%
normalised viability (MDA-MB-453 [6]; 300 nM): 39.5%
normalised viability (DU-4475 [7]; 1000 nM): 44.9%
normalised viability (HDQ-P1 [8]; 1000 nM): 86.2%
normalised viability (MDA-MB-453 [9]; 1000 nM): 25.2%
drug sensitivity score (BT-474): 0
drug sensitivity score (BT-549): 21.3
drug sensitivity score (CAL-120): 21.6
drug sensitivity score (CAL-148 [10]): 19.7
drug sensitivity score (CAL-51 [11]): 20.7
drug sensitivity score (CAL-85-1 [12]): 14.7
drug sensitivity score (DU-4475 [13]): 19.3
drug sensitivity score (HCC1143): 13.2
drug sensitivity score (HCC1599): 0
drug sensitivity score (HCC1937): 22.8
drug sensitivity score (HDQ-P1 [14]): 5.37
drug sensitivity score (Hs578T): 8.18
drug sensitivity score (MDA-MB-231): 16.4
drug sensitivity score (MDA-MB-436): 7.37
drug sensitivity score (MDA-MB-453 [15]): 23
drug sensitivity score (MDA-MB-468): 15
drug sensitivity score (MFM-223): 19
drug sensitivity score (SK-BR-3): 25.6

CC(=O)Nc1cccc(-n2c(=O)n(C3CC3)c(=O)c3c(Nc4ccc(I)cc4F)n(C)c(=O)c(C)c32)c1
normalised viability (CAL-148 [1]; 75 nM): 85.2%
normalised viability (CAL-51 [2]; 75 nM): 73.3%
normalised viability (CAL-85-1 [3]; 75 nM): 38.8%
normalised viability (DU-4475 [4]; 75 nM): -1.23%
normalised viability (HDQ-P1 [5]; 75 nM): 47.9%
normalised viability (MDA-MB-453 [6]; 75 nM): 72.8%
normalised viability (DU-4475 [7]; 250 nM): -1.53%
normalised viability (HDQ-P1 [8]; 250 nM): 63.6%
normalised viability (MDA-MB-453 [9]; 250 nM): 50.9%
drug sensitivity score (BT-474): 0
drug sensitivity score (BT-549): 0
drug sensitivity score (CAL-120): 8.88
drug sensitivity score (CAL-148 [10]): 0
drug sensitivity score (CAL-51 [11]): 7.72
drug sensitivity score (CAL-85-1 [12]): 12.1
drug sensitivity score (DU-4475 [13]): 39.6
drug sensitivity score (HCC1143): 9.72
drug sensitivity score (HCC1599): 8.87
drug sensitivity score (HCC1937): 0
drug sensitivity score (HDQ-P1 [14]): 12.7
drug sensitivity score (Hs578T): 0
drug sensitivity score (MDA-MB-231): 21.7
drug sensitivity score (MDA-MB-436): 0
drug sensitivity score (MDA-MB-453 [15]): 6.65
drug sensitivity score (MDA-MB-468): 2.67
drug sensitivity score (MFM-223): 0
drug sensitivity score (SK-BR-3): 0

Cc1cnc(NC(=O)Nc2cc(Br)c(C)cc2OC[C@@H]2CNCCO2)cn1
normalised viability (CAL-148 [1]; 300 nM): 107%
normalised viability (CAL-51 [2]; 300 nM): 103%
normalised viability (CAL-85-1 [3]; 300 nM): 88.1%
normalised viability (DU-4475 [4]; 300 nM): 102%
normalised viability (HDQ-P1 [5]; 300 nM): 96.2%
normalised viability (MDA-MB-453 [6]; 300 nM): 93.3%
normalised viability (DU-4475 [7]; 1000 nM): 72%
normalised viability (HDQ-P1 [8]; 1000 nM): 106%
normalised viability (MDA-MB-453 [9]; 1000 nM): 65.2%
drug sensitivity score (BT-474): 0
drug sensitivity score (BT-549): 0
drug sensitivity score (CAL-120): 0
drug sensitivity score (CAL-148 [10]): 0
drug sensitivity score (CAL-51 [11]): 0
drug sensitivity score (CAL-85-1 [12]): 0
drug sensitivity score (DU-4475 [13]): 0
drug sensitivity score (HCC1143): 0
drug sensitivity score (HCC1599): 2.32
drug sensitivity score (HCC1937): 5.26
drug sensitivity score (HDQ-P1 [14]): 0
drug sensitivity score (Hs578T): 1.59
drug sensitivity score (MDA-MB-231): 0
drug sensitivity score (MDA-MB-436): 3.49
drug sensitivity score (MDA-MB-453 [15]): 0
drug sensitivity score (MDA-MB-468): 0
drug sensitivity score (MFM-223): 0
drug sensitivity score (SK-BR-3): 1.9

CCCCC(=O)OCC(=O)[C@]1(O)Cc2c(O)c3c(c(O)c2[C@@H](O[C@H]2C[C@H](NC(=O)C(F)(F)F)[C@H](O)[C@H](C)O2)C1)C(=O)c1c(OC)cccc1C3=O [Valrubicin]
normalised viability (CAL-148 [1]; 3000 nM): 0.71%
normalised viability (CAL-51 [2]; 3000 nM): 6.83%
normalised viability (CAL-85-1 [3]; 3000 nM): 31.2%
normalised viability (DU-4475 [4]; 3000 nM): -1.61%
normalised viability (HDQ-P1 [5]; 3000 nM): 45.8%
normalised viability (MDA-MB-453 [6]; 3000 nM): 18.3%
normalised viability (DU-4475 [7]; 10000 nM): -0.99%
normalised viability (HDQ-P1 [8]; 10000 nM): 52.9%
normalised viability (MDA-MB-453 [9]; 10000 nM): 16.2%
drug sensitivity score (BT-474): 5.42
drug sensitivity score (BT-549): 7.75
drug sensitivity score (CAL-120): 15.3
drug sensitivity score (CAL-148 [10]): 21.1
drug sensitivity score (CAL-51 [11]): 20.6
drug sensitivity score (CAL-85-1 [12]): 7.92
drug sensitivity score (DU-4475 [13]): 25
drug sensitivity score (HCC1143): 11.4
drug sensitivity score (HCC1599): 6.82
drug sensitivity score (HCC1937): 16
drug sensitivity score (HDQ-P1 [14]): 9.44
drug sensitivity score (Hs578T): 10.3
drug sensitivity score (MDA-MB-231): 10.8
drug sensitivity score (MDA-MB-436): 5.44
drug sensitivity score (MDA-MB-453 [15]): 11
drug sensitivity score (MDA-MB-468): 11.7
drug sensitivity score (MFM-223): 6.7
drug sensitivity score (SK-BR-3): 18.6

COc1cc2c(Oc3ccc4[nH]c(C)cc4c3F)ncnc2cc1OCCCN1CCCC1 [Cediranib]
normalised viability (CAL-148 [1]; 300 nM): 101%
normalised viability (CAL-51 [2]; 300 nM): 90.7%
normalised viability (CAL-85-1 [3]; 300 nM): 103%
normalised viability (DU-4475 [4]; 300 nM): 98.8%
normalised viability (HDQ-P1 [5]; 300 nM): 88.3%
normalised viability (MDA-MB-453 [6]; 300 nM): 86.2%
normalised viability (DU-4475 [7]; 1000 nM): 83.4%
normalised viability (HDQ-P1 [8]; 1000 nM): 94.6%
normalised viability (MDA-MB-453 [9]; 1000 nM): 77.9%
drug sensitivity score (BT-474): 0
drug sensitivity score (BT-549): 0
drug sensitivity score (CAL-120): 0
drug sensitivity score (CAL-148 [10]): 0
drug sensitivity score (CAL-51 [11]): 0
drug sensitivity score (CAL-85-1 [12]): 0
drug sensitivity score (DU-4475 [13]): 0
drug sensitivity score (HCC1143): 0
drug sensitivity score (HCC1599): 0
drug sensitivity score (HCC1937): 0
drug sensitivity score (HDQ-P1 [14]): 0
drug sensitivity score (Hs578T): 0
drug sensitivity score (MDA-MB-231): 0
drug sensitivity score (MDA-MB-436): 0
drug sensitivity score (MDA-MB-453 [15]): 0
drug sensitivity score (MDA-MB-468): 0
drug sensitivity score (MFM-223): 0
drug sensitivity score (SK-BR-3): 0

Nc1ncn([C@H]2C[C@H](O)[C@@H](CO)O2)c(=O)n1 [Decitabine]
normalised viability (CAL-148 [1]; 3000 nM): 81.2% and 73.7%
normalised viability (CAL-51 [2]; 3000 nM): 98.4% and 79.8%
normalised viability (CAL-85-1 [3]; 3000 nM): 83% and 88.5%
normalised viability (DU-4475 [4]; 3000 nM): 69.8% and 78.9%
normalised viability (HDQ-P1 [5]; 3000 nM): 88.6% and 93.3%
normalised viability (MDA-MB-453 [6]; 3000 nM): 87% and 93.1%
normalised viability (DU-4475 [7]; 10000 nM): 53.4% and 64.7%
normalised viability (HDQ-P1 [8]; 10000 nM): 97.9% and 90.5%
drug sensitivity score (BT-549): 4.59 and 2.2
drug sensitivity score (CAL-120): 0
drug sensitivity score (CAL-85-1 [12]): 0
drug sensitivity score (DU-4475 [13]): 4.16 and 2.07
drug sensitivity score (HCC1143): 5.09 and 8.28
drug sensitivity score (HCC1937): 3.95 and 4.59
drug sensitivity score (HDQ-P1 [14]): 0
drug sensitivity score (Hs578T): 0
drug sensitivity score (MDA-MB-468): 21.5 and 21.6
drug sensitivity score (MFM-223): 0
drug sensitivity score (SK-BR-3): 2.77 and 1.44
